Test results as given in US11951171B2, “Polypeptide EXP and its drug delivery system as well as extracellular vesicle extraction” (TIANJIN MEDICAL UNIVERSITY, priority 2019, dated 2024).

Tests used:
[1] = tested on: exosomes; assay: Competitive binding of CP05 and EXP to exosomes (flow cytometry); settings: peptide alone with exosomes (FIG. 3A, first line)
Protocol: AF750 (APC-Cy7)-labeled CP05 and FAM-labeled CP05 or EXP were co-incubated with exosomes at ratios of 1:1 or 1:5 (mass ratio), and the binding efficiency was detected with flow cytometry. It's shown by the results that when EXP and CP05 were incubated with exosomes at the same time, EXP could compete with CP05 to combine with exosomes, thus reducing the binding efficiency of CP05 and exosomes. (A) Flow cytometry to detect the binding efficiency of EXP or CP05 to exosomes. EXO was used as negative control; EXOCP05 is the binding efficiency of CP05 (FAM, af750) separately labeled by different fluorescence labeling with exosomes. EXOEXP is the binding efficiency of FAM labeled EXP andexosomes. 1:1, 1:5, 1:10 means different mass ratios of AF750 and FAM-EXP/FAM-CP05 are respectively as 1:1, 1:5, 1:10. It's shown by the results of flow cytometryto that the binding efficiency of CP05 alone with EXO was about 70%, while that of EXP and exosomes was 91.5% (flow cytometry to chart: the first line). […] However, it's found by comparing different fluorescence CP05 molecules (flow cytometry to chart: the third line) that, the binding efficiency of EXOCP05 (AF750) remained unchanged with increasing the mass ratio of FAM-CP05. […] Different fluorescence-labeled CP05 (APC-Cy7, FAM) were co-incubated with exosomes, their binding efficiency is detected with flow cytometry. […]

[2] = tested on: exosomes derived from murine myotubes(EXOmyotube), cardiac sphere cells (CDC) (EXOCDC) and human serum (EXOserum); assay: Binding efficiency with exosomes from different sources (flow cytometry)
Protocol: FAM-labeled CP05 or EXP was co-incubated with exosomes derived from murine myotubes(EXOmyotube), cardiac sphere cells (CDC) (EXOCDC) and human serum (EXOserum), and the binding efficiency was detected with flow cytometry. It's shown by the results that the binding efficiency of CP05 to exosomes from different sources is about 70%, and the binding efficiency of the same amount of EXP with exosomes from corresponding sources was about 90%.
Experimental example 5: Comparison on binding efficiency of EXP and exosomes from different sources. • (1) 0.06 μg FAM-labeled CP05 and 0.06 μg of different peptides were respectively mixed with 10 μg exosome from dC2C12, CDC, serum, and DPBS was used to make up a deficiency to 200 μl. • (2) The mixture was incubated for 2-4 hrs at 4° C. under rotation in vertical shaker. • (3) The binding efficiency was detected with flow cytometry.

[3] = tested on: exosomes in serum; assay: Capture of serum exosomes with His-tagged peptide coated nickel beads
Source text: (A) Nano sight was used to detect the particle size of exosomes in serum captured by CP05 and EXP. It's shown by the results that the particle size of exosomes captured by EXP was about 50 nm, whose homogeneity was higher than that of exosomes recovered by ultra separation. […] It's shown by the results that exosomes captured by EXP has typical bi-layer structure, and the size of exosomes captured by EXP was smaller than that of exosomes recovered by ultrafiltration.(D) Western blot was used to detect the marker protein capturing exosome.
Experimental example 6: Characterization and functional validation of exosome captured from serum by EXP. • (1) His-tagged EXP and CP05 (100 μg) were respectively mixed with […] beads in 200 μl binding solution at 4° C. for 1 h under rotation. • (2) 1 ml pre-centrifuged serum was added to His-EXP and His-CP05 coated nickel beads (centrifuged at 4400 g for 20 min, followed by 13000 g for 5 min), and then incubated at 4° C. for 30 min; • (3) The serum was discarded and the nonspecific binding was washed with the washing solution for 3 times, 10 min each time. • (4) […] was used to recover extracellular vesicles.
6.1 Measurement of the size of captured exosomes. • (1) […] of exosomes recovered from elution were diluted into 1 ml of PBS. • (2) Nanosight was used to detect the size distribution of captured exosomes. […]

binding efficiency of peptide alone with EXO [1]: 91.5%
Sequence: CRHKMWTVKSRL (EXP)
binding efficiency to exosomes from serum compared with CP05 ([2]; exosomes from serum): significantly higher than that of CP05
binding efficiency to exosomes from different sources ([2]; same amount of FAM-labeled peptide, EXOmyotube, EXOCDC, EXOserum): about 90%
capture efficiency of exosomes in serum ([3]; FIG. 6F): 93.5%
extraction rate of serum exosomes compared with CP05 ([3]; extraction of serum exosomes): about 2 times
